# ChEMBL document CHEMBL5724709, “EUbOPEN Chemogenomics Library - IncuCyte” (2024)
# Square brackets hold non-standard residues; d marks the D form. Peptide text beside a SMILES is read from it. * marks the point of attachment. CH2Cl = ClC*
# Assays:
# Format in all cases: toxicity, cell-based
# HEK-293T = experiment: Incucyte cell viability with HEK293T; details: human, 24 h, 10 µM, compound concentration 10 uM
# Fibroblast = experiment: Incucyte cell viability with human fibroblast; details: 24 h, 10 µM, compound concentration 10 uM
# U2OS = experiment: Incucyte cell viability with U2OS; details: human, 24 h, 10 µM, compound concentration 10 uM
# Note: unitless GR value; below 1 slowed growth and below 0 cell loss.
Compound,Growth Rate (HEK-293T; replicate number 1),Growth Rate (HEK-293T; replicate number 2),Growth Rate (Fibroblast; replicate number 1),Growth Rate (Fibroblast; replicate number 2),Growth Rate (U2OS; replicate number 1),Growth Rate (U2OS; replicate number 2)
CC(C)(C)c1ccc(CN(C(=O)CN(Cc2c(F)c(F)c(F)c(F)c2F)S(=O)(=O)c2ccc(F)cc2)c2ccc(C(=O)NO)cc2)cc1,0.62,0.53,0.66,-0.2,0.17,1
O=C(NO)c1ccc(CN2CCCc3cc(Cl)ccc32)cc1,0.69,0.85,0.78,-0.22,0,0.79
Cc1cc(-c2ccc3nc(C4CCOCC4)n(CCOC(F)(F)F)c3c2)cn(C)c1=O,0.62,0.67,0.36,-0.06,-0.23,0.68
CN(C)CCCN(CC[C@H](N)C(=O)O)C[C@H]1O[C@@H](n2cnc3c(N)ncnc32)[C@H](O)[C@@H]1O.O=C(O)C(F)(F)F,0.85,0.98,0.74,0.03,1,
Cc1nc(F)ccc1-c1cc(Cn2ccn(C)c2=N)cc(C(=O)NCc2ccc(Cl)c(Cl)c2)c1.O=C(O)C(F)(F)F,0.97,0.95,0.97,0.38,1,
COc1cccc(OC)c1S(=O)(=O)Nc1noc2cc(Cn3cccn3)cc(OC)c12,0.71,0.55,0.79,1,0.39,1
O=C1Cc2cc(C(=O)N[C@@H]3C[C@H]4CC[C@@H](C3)N4S(=O)(=O)CC3CCN(CCCC(F)(F)F)CC3)c(Cl)cc2N1,0.97,1,0.96,0.61,1,
CC(=O)N[C@@H](C)C(=O)N[C@@H](CCC(=O)O)C(=O)N[C@H](C(=O)N[C@@H](C=O)CC(=O)O)C(C)C (Ac-AEV[dD]-aldehyde),0.78,1,0.31,0.14,0.88,0.76
CSCC[C@H](NC(=O)[C@H](CC(=O)O)NC(C)=O)C(=O)N[C@@H](CCC(N)=O)C(=O)N[C@H](C=O)CC(=O)O.O=C(O)C(F)(F)F (Ac-DMQD-aldehyde),1,0.97,0.25,1,1,
CC(=O)N[C@@H](Cc1ccccc1)C(=O)N[C@@H](CC(C)C)C(=O)N[C@H](C(=O)N[C@@H](CC(=O)O)C(=O)CCl)[C@@H](C)O (Ac-FLTD-CH2Cl),0.96,0.99,0.51,1,0.81,0.66
CC[C@H](C)[C@H](NC(C)=O)C(=O)N[C@@H](CCC(=O)O)C(=O)N[C@H](C(=O)N[C@H](C=O)CC(=O)O)[C@@H](C)O.O=C(O)C(F)(F)F (Ac-IETD-aldehyde),0.57,1,0.25,0.42,1,
CC(=O)N[C@@H](CC(C)C)C(=O)N[C@@H](CCC(=O)O)C(=O)N[C@@H](Cc1cnc[nH]1)C(=O)N[C@@H](CC(=O)O)C(=O)CCl.O=C(O)C(F)(F)F (Ac-LEHD-CH2Cl),0.35,0.95,0.44,1,0.62,1
CC(=O)N[C@@H](CC(C)C)C(=O)N[C@@H](CCC(=O)O)C(=O)N[C@@H](Cc1cnc[nH]1)C(=O)N[C@H](C=O)CC(=O)O.O=C(O)C(F)(F)F (Ac-LEHD-aldehyde),0.81,0.98,1,0.49,1,0.89
